Results from publication PMC10287566, “Signaling-specific inhibition of the CB1 receptor for cannabis use disorder: phase 1 and phase 2a randomized trials” (Nature Medicine, 2023).

Experiments:
rats = assay: Irwin test and body temperature (GLP); format: in vivo; conditions: rats, 2, 9 and 36 mg kg^−1 oral
Description: The study involved four groups of six male Wistar rats weighing between 154.0 g and 185.9 g. […] On study day, animals were first scored by the Irwin standardized observation battery, and body temperature was measured. […] Irwin scores and measurement of body temperature were done again at 1, 3, 6, 8 and 24 h after dose.

DIO mice = assay: Food intake and body weight in diet-induced obese mice, repeated treatment; format: in vivo; conditions: mice, acute and repeated 28 d, highest dose tested 15 mg/kg
Description: Body weight and food intake were studied because they are reduced by repeated treatment with rimonabant both in mice[31] and in humans. DIO mice were used because the effects of CB1 antagonists are of greater amplitude in obese mice than in lean mice. Male C57BL/6J mice (8 weeks old) were fed ad libitum with a high-fat diet (HFD) for 8 weeks before the start of the pharmacological treatments. During pharmacological treatments, the HFD was maintained, and food intake and body weight were measured daily. The food consumed was calculated by subtracting the food left in the hoppers from the initial pre-weighed amount.

Compound: COc1ccc(CO[C@H]2CC[C@@]3(C)C(=CC[C@H]4[C@@H]5CC[C@H](C(C)=O)[C@@]5(C)CC[C@@H]43)C2)cc1 [AEF0117, 3β-(4-methoxybenzyloxy)pregn-5-en-20-one]
- effect on spontaneous behavior in the home cage (Irwin test) (rats): had no effect
- Overall effect: inhibition of spontaneous food-intake (DIO mice): No
